Assay results published in paper PMC8215295, “Identification and characterization of the pyridoxal 5’-phosphate allosteric site in Escherichia coli pyridoxine 5’-phosphate oxidase” (The Journal of Biological Chemistry, 2021).
Several values for one entry are separate records, joined by “and”; a condition that tells them apart may be missing. Equal entries are not always repeated. Entries after “also recorded” stand apart in the source; their conditions may differ.

Assays:
[1] = target: T1, ePNPO K145A/F177A variant (Escherichia coli, UniProt P0AFI7, F177A/K145A); assay: Fluorimetric PLP binding equilibrium
T1 construct: the entire polypeptide chain is made by 218 residues; made in house; host or cells: E. coli MDS00, pET22b(+)
T1 sequence (P0AFI7 whole entry K145A/F177A): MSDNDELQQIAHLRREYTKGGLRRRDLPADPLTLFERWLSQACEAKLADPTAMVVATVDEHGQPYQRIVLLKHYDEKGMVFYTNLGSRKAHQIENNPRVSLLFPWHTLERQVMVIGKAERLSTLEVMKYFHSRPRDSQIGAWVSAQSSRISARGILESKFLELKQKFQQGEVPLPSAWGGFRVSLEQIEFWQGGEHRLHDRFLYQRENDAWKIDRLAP
Description: (§1) Binding of PLP to ePNPO variants was also analyzed using the spectrofluorometric method previously employed for the wildtype enzyme ([5]), which is based on the resulting increase of FMN fluorescence emission.

[2] = target: T2, ePNPO N84A/K145A/F177A variant (Escherichia coli, UniProt P0AFI7, F177A/K145A/N84A); assay: Fluorimetric PLP binding equilibrium
T2 construct: the entire polypeptide chain is made by 218 residues; made in house; host or cells: E. coli MDS00, pET22b(+)
T2 sequence (P0AFI7 whole entry N84A/K145A/F177A): as the sequence (P0AFI7 whole entry K145A/F177A) above, with N84A counted along it
Description: as §1

[3] = target: T3, ePNPO N84W/K145A/F177A variant (Escherichia coli, UniProt P0AFI7, F177A/K145A/N84W); assay: Fluorimetric PLP binding equilibrium
T3 construct: the entire polypeptide chain is made by 218 residues; made in house; host or cells: E. coli MDS00, pET22b(+)
T3 sequence (P0AFI7 whole entry N84W/K145A/F177A): as the sequence (P0AFI7 whole entry K145A/F177A) above, with N84W counted along it
Description: as §1

[4] = target: T1, ePNPO K145A/F177A variant; assay: PLP retention after SEC; format: binding; conditions: 100 μM enzyme + equimolar PLP, with respect to protein subunits
Description: (§2) It is known by previous experiments on wildtype ePNPO that, when the protein is incubated with PLP and then passed through an SEC column, it retains PLP tightly bound to it ([7]). […] All ePNPO variants (100 μM) were incubated with an equimolar amount of PLP. Then, they were passed through an SEC column and the stoichiometry of protein-bound PLP with respect to protein subunits was determined. The percentage of protein-bound PLP was 72 ± 8, 73 ± 10, and 73 ± 19, with the K145A/F177A, N84A/K145A/F177A and N84W/K145A/F177A ePNPO variants, respectively (Table 1).

[5] = target: T2, ePNPO N84A/K145A/F177A variant; assay: PLP retention after SEC; format: binding; conditions: 100 μM enzyme + equimolar PLP, with respect to protein subunits
Description: as §2

[6] = target: T3, ePNPO N84W/K145A/F177A variant; assay: PLP retention after SEC; format: binding; conditions: 100 μM enzyme + equimolar PLP, with respect to protein subunits
Description: as §2

[7] = target: T4, wildtype ePNPO (Escherichia coli, UniProt P0AFI7); assay: PLP retention after SEC; format: binding; conditions: 100 μM enzyme + equimolar PLP, with respect to protein subunits
T4 construct: the entire polypeptide chain is made by 218 residues; made in house; host or cells: E. coli MDS00, pET22b(+)
T4 sequence (P0AFI7 whole entry): as the sequence (P0AFI7 whole entry K145A/F177A) above, with A145K, A177F counted along it
Description: as §2

[8] = target: T4, wildtype ePNPO; conditions: read-out: KD^PLP, fluorimetric PLP binding equilibrium; cited from earlier work
[9] = target: T4, wildtype ePNPO; conditions: cited from earlier work
[10] = target: T4, wildtype ePNPO; conditions: in solution; cited from earlier work
[11] = test system: ePNPO quadruple variant (K72I/Y129F/R133L/H199A); conditions: ePNPO quadruple variant with impaired active site; cited from earlier work
[12] = test system: human pyridoxine 5’-phosphate oxidase; parameters: method as in PMID 32788630; conditions: human PNPO; parabolic inhibition model; cited from earlier work
[13] = test system: ePNPO; conditions: cited from earlier work
[14] = target: T5, ePNPO R23L variant (Escherichia coli, UniProt P0AFI7, R23L); assay: PLP retention after SEC; conditions: 100 μM enzyme + equimolar PLP, with respect to protein subunits
T5 sequence (P0AFI7 whole entry R23L): as the sequence (P0AFI7 whole entry K145A/F177A) above, with R23L, A145K, A177F counted along it

[15] = target: T6, ePNPO R23L/R24L variant (Escherichia coli, UniProt P0AFI7, R23L/R24L); assay: PLP retention after SEC; conditions: 100 μM enzyme + equimolar PLP, with respect to protein subunits
T6 sequence (P0AFI7 whole entry R23L/R24L): as the sequence (P0AFI7 whole entry K145A/F177A) above, with R23L, R24L, A145K, A177F counted along it

[16] = target: T5, ePNPO R23L variant; assay: Fluorimetric PLP binding equilibrium
[17] = target: T6, ePNPO R23L/R24L variant; assay: Fluorimetric PLP binding equilibrium
[18] = target: R23L/R24L ePNPO (Escherichia coli, UniProt P0AFI7, R23L/R24L); assay: PLP binding stoichiometry, fluorimetric titration; conditions: titration of 2, 4 and 8 μM ePNPO with PLP
R23L/R24L ePNPO, sequence (P0AFI7 whole entry R23L/R24L): as the sequence (P0AFI7 whole entry K145A/F177A) above, with R23L, R24L, A145K, A177F counted along it

[19] = target: T6, ePNPO R23L/R24L variant; assay: biochemical; format: biochemical; parameters: the entire polypeptide chain is made by 218 residues; made in house; host or cells: E. coli MDS00, pET22b(+)
Source text: Initial velocity data obtained with all variant forms were fitted to the Michaelis–Menten equation in order to obtain apparent VMAX and KM values as a function of PLP concentration.
Figure 7 Kinetic analysis of PLP inhibition with Arg-cage variants. […] Initial velocity measurements shown in the left panels are the average ± standard deviation of three independent measurements. Saturation curves were fitted to the Michaelis–Menten equation, obtaining apparent VMAX and KM values as a function of PLP concentration. These are represented as 1/VMAX (blue symbols) and KM/VMAX (red symbols) in the right panels, in order to facilitate the interpretation of the PLP inhibition mechanism from the shape of graphs, which correspond to the classic secondary plots of the Y-intercept and slope derived from Lineweaver–Burk plots. As detailed in the Experimental Procedures section, initial velocity data and 1/VMAX and KM/VMAX values of each data set were globally fitted to Equations (3), (4), (5), obtaining the continuous lines shown in the graphs and the parameter values shown in Table 3.
In order to analyze the above-mentioned kinetic data, a general inhibition model was considered (Fig. 8A), in which PLP binds at both the active and allosteric sites. […] Therefore, the dissociation constant of the substrate binding equilibrium may be assumed to correspond to the Michaelis–Menten constant (KM) derived from steady-state kinetic measurements. Equations describing the dependence of initial velocity, 1/VMAX, and KM/VMAX on substrate and PLP concentration were derived on the basis of these assumptions (Equations (3), (4), (5)). Using these equations, initial velocity data as a function of substrate concentration, obtained at all different fixed PLP concentrations, were globally fit together with the previously obtained values of apparent 1/VMAX and KM/VMAX as a function of PLP concentration.
Inhibition kinetics were measured in 50 mM Na-Hepes pH 7.6. […] All saturation curves obtained by varying PNP at a fixed PLP concentration were independently analyzed using the Michaelis–Menten equation, obtaining apparent VMAX and apparent KM values, which were then used to calculate 1/appVMAX and appKM/appVMAX as a function of PLP concentration.

[20] = target: the molecule itself; assay: crystal structure; ePNPOqm without PLP, space group P3(1) 2 1, 1.56 Å; one subunit in the asymmetric unit, dimer generated by the crystallographic 2-fold axis; hanging drop, (NH4)2SO4, 298 K

Molecule: Cc1ncc(COP(=O)(O)O)c(C=O)c1O [PLP, Pyridoxal 5’-phosphate]
- Kd [1]: 470 ± 60 nM
- Kd [2]: 360 ± 50 nM
- Kd [3]: 330 ± 70 nM
- PLP (%) protein-bound PLP retained after SEC [4]: 72 ± 8%
- PLP (%) protein-bound PLP retained after SEC [5]: 73 ± 10%
- PLP (%) protein-bound PLP retained after SEC [6]: 73 ± 19%
- PLP (%) protein-bound PLP retained after SEC [7]: 70% and 69 ± 19%
- Kd [8]: 150 nM
- αKI (PLP binding at allosteric site of ES complex) ([9]; WT, determined according to Figure 2A model): 7.13 ± 0.52 µM
- Ki ([9]; read-out: KI (PLP binding at the allosteric site), WT, determined according to Figure 2A model): 590 ± 700 nM
- type of PLP inhibition ([9]; wildtype ePNPO): linear mixed-type inhibition
- stoichiometry of PLP binding to the allosteric site [10]: one PLP molecule per protein dimer
- stoichiometry of PLP binding [11]: two PLP molecules per dimer
- α value (allosteric coupling) [12]: about 3
- β coefficient (reduction of kCAT of PES complex) [12]: 0.15
- kOFF of PLP binding [13]: 3.2 s⁻¹
- kON of PLP binding [13]: 1.13e+07 M⁻¹ s⁻¹
- PLP (%) protein-bound PLP retained after SEC [14]: 38 ± 11%
- PLP (%) protein-bound PLP retained after SEC [15]: 30 ± 8%
- Kd [16]: 580 ± 120 nM
- Kd [17]: 1000 ± 90 nM
- PLP binding stoichiometry [18]: two molecules of PLP per protein subunit; also recorded: four PLP molecules per enzyme dimer
- α (allosteric coupling coefficient) [19]: 6.6
- γ factor (PLP active site / allosteric site coupling) [19]: 0.31
- type of PLP inhibition ([19]; Hepes buffer): parabolic inhibition
- Ki ([19]; KI (PLP binding at the allosteric site), global fit (Fig. 8A model)): 820 ± 20 nM
- Ki ([19]; KX (PLP binding at the active site), global fit (Fig. 8A model)): 6580 ± 620 nM
- αKI (PLP binding at allosteric site of ES complex) ([19]; global fit (Fig. 8A model)): 5.39 ± 1.14 µM
- β (coefficient reducing kCAT of PES complex) ([19]; global fit (Fig. 8A model)): 0.42 and 0.42 ± 0.05
- Ki ([19]; γKX (PLP binding at active site of PE complex), global fit (Fig. 8A model)): 2050 ± 60 nM

B1: Escherichia coli pyridoxine 5'-phosphate oxidase quadruple variant K72I/Y129F/R133L/H199A (enzyme, UniProt P0AFI7 1-218, looked up)
chain: MSDNDELQQIAHLRREYTKGGLRRRDLPADPLTLFERWLSQACEAKLADPTAMVVATVDEHGQPYQRIVLLIHYDEKGMVFYTNLGSRKAHQIENNPRVSLLFPWHTLERQVMVIGKAERLSTLEVMKFFHSLPRDSQIGAWVSKQSSRISARGILESKFLELKQKFQQGEVPLPSFWGGFRVSLEQIEFWQGGEHRLADRFLYQRENDAWKIDRLAP
notes: pyridoxine 5'-phosphate oxidase (PNPO, EC 1.4.3.5) of Escherichia coli, encoded by pdxH; the entire polypeptide chain is made by 218 residues; active site impaired by four substitutions; Gene cloned in pET22b(+) between NdeI and NcoI; no tag is mentioned; Modelled residues: 7-218 in 6YLZ; 17-126 and 176-218 (chain A), 14-166 and 170-218 (chain B) in 6YMH; also called ePNPOqm; source: E. coli …
- stoichiometry N [20]: 2
